Test results taken from patent US11084829B2, “Ubiquitin-specific-processing protease 7 (USP7) modulators and uses thereof” (RAPT THERAPEUTICS, INC., priority 2018, dated 2021).

Target: USP7 (Homo sapiens, UniProt Q93009)
Assay: USP7 inhibitory potency (IC50)
Type: biochemical
Description: Activity for compounds described herein is provided in Table 2, wherein potency levels are provided as follows: (Potency: USP7 IC50: A<0.01 μM; B=0.01-0.1 μM; C=>0.1 μM.

Sequence of USP7 (Q93009 whole entry): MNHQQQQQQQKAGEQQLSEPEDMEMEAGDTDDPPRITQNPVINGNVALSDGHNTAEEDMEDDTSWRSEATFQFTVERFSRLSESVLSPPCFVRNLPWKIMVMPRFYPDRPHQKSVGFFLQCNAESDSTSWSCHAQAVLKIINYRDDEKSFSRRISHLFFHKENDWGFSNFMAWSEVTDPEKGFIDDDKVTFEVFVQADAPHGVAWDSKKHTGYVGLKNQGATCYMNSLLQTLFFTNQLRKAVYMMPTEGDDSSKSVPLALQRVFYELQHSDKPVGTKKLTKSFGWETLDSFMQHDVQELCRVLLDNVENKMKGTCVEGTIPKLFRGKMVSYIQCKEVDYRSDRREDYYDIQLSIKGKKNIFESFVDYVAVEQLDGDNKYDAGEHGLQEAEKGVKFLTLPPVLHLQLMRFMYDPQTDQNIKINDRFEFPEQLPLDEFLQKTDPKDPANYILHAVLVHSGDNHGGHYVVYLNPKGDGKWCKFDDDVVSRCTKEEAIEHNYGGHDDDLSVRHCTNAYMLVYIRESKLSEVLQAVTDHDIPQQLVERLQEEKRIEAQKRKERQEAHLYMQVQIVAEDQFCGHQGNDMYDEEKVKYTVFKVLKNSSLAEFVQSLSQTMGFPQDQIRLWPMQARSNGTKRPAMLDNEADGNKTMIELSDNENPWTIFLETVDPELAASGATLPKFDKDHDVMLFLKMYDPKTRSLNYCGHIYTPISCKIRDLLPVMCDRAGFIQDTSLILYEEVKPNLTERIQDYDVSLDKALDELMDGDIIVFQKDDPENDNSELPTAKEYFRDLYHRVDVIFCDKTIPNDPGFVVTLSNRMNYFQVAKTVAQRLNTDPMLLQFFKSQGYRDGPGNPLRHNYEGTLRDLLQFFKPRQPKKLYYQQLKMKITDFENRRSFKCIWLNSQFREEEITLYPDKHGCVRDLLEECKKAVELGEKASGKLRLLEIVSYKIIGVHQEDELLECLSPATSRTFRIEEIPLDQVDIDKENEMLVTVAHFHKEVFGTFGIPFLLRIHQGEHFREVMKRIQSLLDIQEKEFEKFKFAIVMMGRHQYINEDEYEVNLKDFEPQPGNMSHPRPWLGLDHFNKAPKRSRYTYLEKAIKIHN

IC50	SMILES
< 10 nM	Cc1cc(Cl)cc(-c2ncnc3cc(CN4C(=O)NCC(C)C4=O)sc23)c1C[C@@H]1CNCCO1 (stereo partly drawn) [Example 249, 3-((4-(5-chloro-3-methyl-2-(((R)-morpholin-2-yl)methyl)phenyl)thieno[3,2-d]pyrimidin-6-yl)methyl)-5-methyldihydropyrimidine-2,4(1H,3H)-dione]
< 10 nM	Cc1cc(Cl)cc(-c2ncnc3cc(CN4C(=O)CCN(CC(F)(F)F)C4=O)sc23)c1CN1[C@@H](C)CNC[C@@H]1C [Example 260, 3-((4-(5-chloro-2-(((2S,6S)-2,6-dimethylpiperazin-1-yl)methyl)-3-methylphenyl)thieno[3,2-d]pyrimidin-6-yl)methyl)-1-(2,2,2-trifluoroethyl)dihydropyrimidine-2,4(1H,3H)-dione]
> 100 nM	Cc1ccc(CN2CCNC[C@@H]2C)c(-c2ncnc3cc(CN4C(=O)C5CC5C4=O)sc23)c1 (stereo partly drawn) [Example 62, 3-((4-(5-methyl-2-(((S)-2-methylpiperazin-1-yl)methyl)phenyl)thieno[3,2-d]pyrimidin-6-yl)methyl)-3-azabicyclo[3.1.0]hexane-2,4-dione]
10 to 100 nM	Cc1cc(Cl)cc(-c2ncnc3cc(CN4C(=O)C5C(C4=O)C5(C)C)sc23)c1CN1[C@@H](C)CNC[C@@H]1C (stereo partly drawn) [Example 56, 3-((4-(5-chloro-2-(((2S,6S)-2,6-dimethylpiperazin-1-yl)methyl)-3-methylphenyl)thieno[3,2-d]pyrimidin-6-yl)methyl)-6,6-dimethyl-3-azabicyclo[3.1.0]hexane-2,4-dione]
< 10 nM	Cc1cc(Cl)cc(-c2ccnc3cc(CN4C(=O)C5CC5C4=O)sc23)c1CC1CNCCS1 (stereo not shown) [Example 113, 3-((7-(5-chloro-3-methyl-2-(thiomorpholin-2-ylmethyl)phenyl)thieno[3,2-b]pyridin-2-yl)methyl)-3-azabicyclo[3.1.0]hexane-2,4-dione]
< 10 nM	Cc1cc(Cl)cc(-c2ncnc3cc(CN4C(=O)CCC4=O)sc23)c1C[C@@H]1CNCC(C)(C)O1 [Example 215, (R)-1-((4-(5-chloro-2-((6,6-dimethylmorpholin-2-yl)methyl)-3-methylphenyl)thieno[3,2-d]pyrimidin-6-yl)methyl)pyrrolidine-2,5-dione]
10 to 100 nM	Cc1cc(Cl)cc(-c2ncnc3cc(Cn4c(=O)cc[nH]c4=O)sc23)c1C[C@@H]1CNCC(C)(C)O1 [Example 266, (R)-3-((4-(5-chloro-2-((6,6-dimethylmorpholin-2-yl)methyl)-3-methylphenyl)thieno[3,2-d]pyrimidin-6-yl)methyl)pyrimidine-2,4(1H,3H)-dione]
10 to 100 nM	Cc1cc(Cl)cc(-c2ccnc3cc(CN4C(=O)CCC4=O)sc23)c1CC1CNCCO1 (stereo not shown) [Example 96, 1-((7-(5-chloro-3-methyl-2-(morpholin-2-ylmethyl)phenyl)thieno[3,2-b]pyridin-2-yl)methyl)pyrrolidine-2,5-dione]
< 10 nM	Cc1cc(Cl)cc(-c2ncnc3cc(CN4C(=O)CCN(CC(F)(F)F)C4=O)sc23)c1C[C@@H]1CNCC(C)(C)O1 [Example 236, (R)-3-((4-(5-chloro-2-((6,6-dimethylmorpholin-2-yl)methyl)-3-methylphenyl)thieno[3,2-d]pyrimidin-6-yl)methyl)-1-(2,2,2-trifluoroethyl)dihydropyrimidine-2,4(1H,3H)-dione]
< 10 nM	Cc1cc(Cl)cc(-c2ncnc3cc(CN4C(=O)C5CC5C4=O)sc23)c1CC1CNCCO1 (stereo not shown) [Example 152, 3-((4-(5-chloro-3-methyl-2-(morpholin-2-ylmethyl)phenyl)thieno[3,2-d]pyrimidin-6-yl)methyl)-3-azabicyclo[3.1.0]hexane-2,4-dione]
10 to 100 nM	Cc1cc(Cl)cc(-c2ncnc3cc(CN4C(=O)C5CC5C4=O)sc23)c1C[C@H]1CNCC(C)(C)O1 (stereo partly drawn) [Example 213, 3-((4-(5-chloro-2-(((S)-6,6-dimethylmorpholin-2-yl)methyl)-3-methylphenyl)thieno[3,2-d]pyrimidin-6-yl)methyl)-3-azabicyclo[3.1.0]hexane-2,4-dione]
10 to 100 nM	Cc1cc(Cl)cc(-c2ncnc3cc(CN4C(=O)COC4=O)sc23)c1CN1C[C@@H](C)NC[C@@H]1C [Example 76, 3-((4-(5-chloro-2-(((2S,5R)-2,5-dimethylpiperazin-1-yl)methyl)-3-methylphenyl)thieno[3,2-d]pyrimidin-6-yl)methyl)oxazolidine-2,4-dione]
10 to 100 nM	Cc1cc(Cl)cc(-c2ncnc3cc(CN4C(=O)CCN(CCCC(=O)O)C4=O)sc23)c1C[C@@H]1CNCCO1 [Example 265, (R)-4-(3-((4-(5-chloro-3-methyl-2-(morpholin-2-ylmethyl)phenyl)thieno[3,2-d]pyrimidin-6-yl)methyl)-2,4-dioxotetrahydropyrimidin-1(2H)-yl)butanoic acid]
< 10 nM	CC1(C)CNCC(Cc2c(Cl)cc(Cl)cc2-c2ncnc3cc(CN4C(=O)CCC4=O)sc23)O1 (stereo not shown) [Example 211, 1-((4-(3,5-dichloro-2-((6,6-dimethylmorpholin-2-yl)methyl)phenyl)thieno[3,2-d]pyrimidin-6-yl)methyl)pyrrolidine-2,5-dione]
< 10 nM	Cc1cc(Cl)cc(-c2ccnc3cc(CN4C(=O)CCC4=O)sc23)c1CN1CCNC[C@@H]1C [Example 8, (S)-1-((7-(5-chloro-3-methyl-2-((2-methylpiperazin-1-yl)methyl)phenyl)thieno[3,2-b]pyridin-2-yl)methyl)pyrrolidine-2,5-dione]
> 100 nM	Cc1cc(Cl)cc(-c2ncnc3cc(Cn4c(C#N)cccc4=O)sc23)c1C[C@@H]1CNCC(C)(C)O1 [Example 262, (R)-1-((4-(5-chloro-2-((6,6-dimethylmorpholin-2-yl)methyl)-3-methylphenyl)thieno[3,2-d]pyrimidin-6-yl)methyl)-6-oxo-1,6-dihydropyridine-2-carbonitrile]
< 10 nM	Cc1cc(Cl)cc(-c2ccnc3cc(CN4C(=O)CCC4=O)sc23)c1CN1CC2CC1CN2 (stereo not shown) [Example 15, 1-((7-(2-((2,5-diazabicyclo[2.2.1]heptan-2-yl)methyl)-5-chloro-3-methylphenyl)thieno[3,2-b]pyridin-2-yl)methyl)pyrrolidine-2,5-dione]
< 10 nM	Cc1cc(Cl)cc(-c2ncnc3cc(CN4C(=O)CSC4=O)sc23)c1CC1CNCCO1 (stereo not shown) [Example 171, 3-((4-(5-chloro-3-methyl-2-(morpholin-2-ylmethyl)phenyl)thieno[3,2-d]pyrimidin-6-yl)methyl)thiazolidine-2,4-dione]
< 10 nM	Cc1cc(Cl)cc(-c2ccnc3cc(Cn4c(=O)ccn(C)c4=O)sc23)c1CC1CNCCO1 (stereo not shown) [Example 108, 3-((7-(5-chloro-3-methyl-2-(morpholin-2-ylmethyl)phenyl)thieno[3,2-b]pyridin-2-yl)methyl)-1-methylpyrimidine-2,4(1H,3H)-dione]
< 10 nM	Cc1cc(Cl)cc(-c2ccnc3cc(CN4C(=O)C5C(C4=O)C5(C)C)sc23)c1CN1CCNC[C@@H]1C (stereo partly drawn) [Example 20, 3-((7-(5-chloro-3-methyl-2-(((S)-2-methylpiperazin-1-yl)methyl)phenyl)thieno[3,2-b]pyridin-2-yl)methyl)-6,6-dimethyl-3-azabicyclo[3.1.0]hexane-2,4-dione]
< 10 nM	Cc1cc(Cl)cc(-c2ncnc3cc(CN4C(=O)CNC4=O)sc23)c1C[C@@H]1CNCCO1 [Example 243, (R)-3-((4-(5-chloro-3-methyl-2-(morpholin-2-ylmethyl)phenyl)thieno[3,2-d]pyrimidin-6-yl)methyl)imidazolidine-2,4-dione]
< 10 nM	Cc1cc(Cl)cc(-c2ncnc3cc(CN4C(=O)C5CCC5C4=O)sc23)c1CC1CNCCO1 (stereo not shown) [Example 170, 3-((4-(5-chloro-3-methyl-2-(morpholin-2-ylmethyl)phenyl)thieno[3,2-d]pyrimidin-6-yl)methyl)-3-azabicyclo[3.2.0]heptane-2,4-dione]
> 100 nM	Cc1cc(Cl)cc(-c2ncnc3cc(CN4C(=O)CCC4C)sc23)c1CN1[C@@H](C)CNC[C@@H]1C (stereo partly drawn) [Example 91, 1-((4-(5-chloro-2-(((2S,6S)-2,6-dimethylpiperazin-1-yl)methyl)-3-methylphenyl)thieno[3,2-d]pyrimidin-6-yl)methyl)-5-methylpyrrolidin-2-one]
< 10 nM	O=C1C2CC2C(=O)N1Cc1cc2nccc(-c3cc(Cl)cc(Cl)c3CC3CNCC4(CCC4)O3)c2s1 (stereo not shown) [Example 150, 3-((7-(2-((5-oxa-8-azaspiro[3.5]nonan-6-yl)methyl)-3,5-dichlorophenyl)thieno[3,2-b]pyridin-2-yl)methyl)-3-azabicyclo[3.1.0]hexane-2,4-dione]
10 to 100 nM	COC[C@H]1CCC(=O)N1Cc1cc2ncnc(-c3cc(Cl)cc(C)c3CC3CNCC(C)(C)O3)c2s1 (stereo partly drawn) [Example 229, (5R)-1-((4-(5-chloro-2-((6,6-dimethylmorpholin-2-yl)methyl)-3-methylphenyl)thieno[3,2-d]pyrimidin-6-yl)methyl)-5-(methoxymethyl)pyrrolidin-2-one]
< 10 nM	Cc1cc(Cl)cc(-c2ccnc3cc(CN4C(=O)CCC4=O)sc23)c1CN1CCNC(C)(C)C1 [Example 10, 1-((7-(5-chloro-2-((3,3-dimethylpiperazin-1-yl)methyl)-3-methylphenyl)thieno[3,2-b]pyridin-2-yl)methyl)pyrrolidine-2,5-dione]
< 10 nM	CN1CCC(=O)N(Cc2cc3nccc(-c4cc(Cl)cc(Cl)c4CC4CNCC(C)(C)O4)c3s2)C1=O (stereo not shown) [Example 135, 3-((7-(3,5-dichloro-2-((6,6-dimethylmorpholin-2-yl)methyl)phenyl)thieno[3,2-b]pyridin-2-yl)methyl)-1-methyldihydropyrimidine-2,4(1H,3H)-dione]
> 100 nM	Cc1cc(Cl)cc(-c2ncnc3cc(CN4C(=O)CC[C@@H]4C(=O)O)sc23)c1C[C@@H]1CNCC(C)(C)O1 [Example 225, (R)-1-((4-(5-chloro-2-(((R)-6,6-dimethylmorpholin-2-yl)methyl)-3-methylphenyl)thieno[3,2-d]pyrimidin-6-yl)methyl)-5-oxopyrrolidine-2-carboxylic acid]
